Test results from ChEMBL document CHEMBL1201862, “PubChem BioAssay data set” (2004).
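Compound exposure: 48 hours, 5 concentrations, 96-well plates. At the GI50, growth is halved.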 Activity calls are given as the source filed them. Cut-off read from the data, not from the text of the source: active = GI50 up to about 1.1 µM and inactive = higher.

Experiments:
Test in all cases: NCI-60 cell line screen, 48 h
[1] = system: NCI-H460
[2] = system: COLO 205
[3] = system: NCI-H23
[4] = system: UACC-62
[5] = system: IGROV-1
[6] = system: HT-29
[7] = system: SK-MEL-28
[8] = system: M14
[9] = system: ACHN
[10] = system: LOX IMVI
[11] = system: OVCAR-4
[12] = system: MOLT-4
[13] = system: OVCAR-5
[14] = system: HCT-15
[15] = system: SK-MEL-2
[16] = system: KM-20L2
[17] = system: EKVX
[18] = system: HL-60
[19] = system: DLD-1
[20] = system: UACC-257
[21] = system: SF-295
[22] = system: DMS-114
[23] = system: RXF 393
[24] = system: HCT-116
[25] = system: KM12
[26] = system: TK-10
[27] = system: NCI-H522
[28] = system: HOP-62
[29] = system: SNB-78
[30] = system: NCI-H226
[31] = system: SR
[32] = system: A498
[33] = system: LXFL 529
[34] = system: UO-31
[35] = system: A549
[36] = system: RPMI-8226
[37] = system: SK-MEL-5
[38] = system: CCRF-CEM
[39] = system: SK-OV-3
[40] = system: Malme-3M
[41] = system: SW-620
[42] = system: SF-539
[43] = system: XF498
[44] = system: HOP-18
[45] = system: DMS-273
[46] = system: RXF 631
[47] = system: OVCAR-8
[48] = system: OVCAR-3
[49] = system: M19-MEL
[50] = system: K562
[51] = system: HCC 2998
[52] = system: 786-0
[53] = system: HOP-92
[54] = system: U-251
[55] = system: SF-268
[56] = system: SNB-75
[57] = system: SNB-19
[58] = system: SN12C
[59] = system: CAKI-1

**Q.** What does the source list for `COc1ccc(C(c2ccccc2)(c2ccc(OC)cc2)N2C(=O)NC3C(CCCCC(=O)NCCCCCCOP(OCCC#N)N(C(C)C)C(C)C)SCC32)cc1` (configuration not stated)?
**A.** GI50 [1]: 16.8 µM (inactive); GI50 [2]: 21.6 µM (inactive); GI50 [3]: 17 µM (inactive); GI50 [4]: 10.9 µM (inactive); GI50 [5]: 18.7 µM (inactive); GI50 [6]: 14.6 µM (inactive); GI50 [7]: 15 µM (inactive); GI50 [8]: 18.4 µM (inactive); GI50 [9]: 16.3 µM (inactive); GI50 [10]: 11.8 µM (inactive); GI50 [11]: 17.9 µM (inactive); GI50 [12]: 7.57 µM (inactive); GI50 [13]: > 10 µM (inactive); GI50 [14]: 18 µM; GI50 [15]: 11.6 µM (inactive); GI50 [16]: 17.1 µM (inactive); GI50 [17]: 21.5 µM (inactive); GI50 [18]: 12.1 µM (inactive); GI50 [19]: 14.8 µM (inactive); GI50 [20]: 19.3 µM (inactive); GI50 [21]: 17.1 µM (inactive); GI50 [22]: 17.7 µM (inactive); GI50 [23]: 11.7 µM (inactive); GI50 [24]: 12 µM (inactive); GI50 [25]: 16.2 µM (inactive); GI50 [26]: 18 µM (inactive); GI50 [27]: 12.7 µM (inactive); GI50 [28]: 17.6 µM (inactive); GI50 [29]: 16.2 µM (inactive); GI50 [30]: 15 µM (inactive); GI50 [31]: 8.07 µM (inactive); GI50 [32]: 17.2 µM (inactive); GI50 [33]: 11.9 µM (inactive); GI50 [34]: 14.3 µM (inactive); GI50 [35]: 20.3 µM (inactive); GI50 [36]: 8.34 µM (inactive); GI50 [37]: 15.3 µM (inactive); GI50 [38]: 9.12 µM (inactive); GI50 [39]: > 10 µM (inactive); GI50 [40]: 17.8 µM (inactive); GI50 [41]: 19.8 µM (inactive); GI50 [42]: 14.5 µM (inactive); GI50 [43]: 15.8 µM (inactive); GI50 [44]: 11.8 µM (inactive); GI50 [45]: 12.7 µM (inactive); GI50 [46]: 4.06 µM (inactive); GI50 [47]: 29.2 µM (inactive); GI50 [48]: 14.8 µM (inactive); GI50 [49]: 16.8 µM (inactive); GI50 [50]: 7.62 µM (inactive); GI50 [51]: 16.6 µM (inactive); GI50 [52]: 18.1 µM (inactive); GI50 [53]: 19.5 µM (inactive); GI50 [54]: 15 µM (inactive); GI50 [55]: 15.2 µM (inactive)

**Q.** With `NC(=O)c1ncn(Cc2ccccc2)c1CNC(N)=S` as the compound, how does the GI50 [56] read?
**A.** Its GI50 is 91.4 µM (inactive).

**Q.** What about the GI50 [1] of the same compound?
**A.** The GI50 was > 100 µM (inactive).

**Q.** What about the GI50 [2] of the same compound?
**A.** Its GI50 is > 100 µM (inactive).

**Q.** And the GI50 [3]?
**A.** Its GI50 is > 100 µM (inactive).

**Q.** What about the GI50 [4] of the same compound?
**A.** The GI50 was > 100 µM (inactive).

**Q.** What about the GI50 [5] of the same compound?
**A.** Its GI50 is > 100 µM (inactive).

**Q.** And the GI50 [6]?
**A.** The GI50 was > 100 µM (inactive).

**Q.** What about the GI50 [7] of the same compound?
**A.** The GI50 was > 100 µM (inactive).

**Q.** What about the GI50 [8] of the same compound?
**A.** Its GI50 is > 100 µM (inactive).

**Q.** And the GI50 [9]?
**A.** Its GI50 is > 100 µM (inactive).

**Q.** What about the GI50 [10] of the same compound?
**A.** Its GI50 is > 100 µM (inactive).

**Q.** And the GI50 [11]?
**A.** The GI50 was > 100 µM (inactive).

**Q.** And the GI50 [12]?
**A.** Its GI50 is > 100 µM (inactive).

**Q.** And the GI50 [13]?
**A.** Its GI50 is > 100 µM (inactive).

**Q.** And the GI50 [14]?
**A.** Its GI50 is over 100 µM.

**Q.** And the GI50 [17]?
**A.** Its GI50 is > 100 µM (inactive).

**Q.** What about the GI50 [18] of the same compound?
**A.** The GI50 was > 100 µM (inactive).

**Q.** And the GI50 [19]?
**A.** The GI50 was > 100 µM (inactive).

**Q.** What about the GI50 [57] of the same compound?
**A.** The GI50 was > 100 µM (inactive).

**Q.** What about the GI50 [21] of the same compound?
**A.** The GI50 was > 100 µM (inactive).

**Q.** What about the GI50 [22] of the same compound?
**A.** Its GI50 is > 100 µM (inactive).

**Q.** And the GI50 [23]?
**A.** Its GI50 is > 100 µM (inactive).

**Q.** What about the GI50 [25] of the same compound?
**A.** Its GI50 is > 100 µM (inactive).

**Q.** What about the GI50 [26] of the same compound?
**A.** Its GI50 is > 100 µM (inactive).

**Q.** And the GI50 [29]?
**A.** Its GI50 is > 100 µM (inactive).

**Q.** And the GI50 [30]?
**A.** The GI50 was > 100 µM (inactive).

**Q.** What about the GI50 [31] of the same compound?
**A.** Its GI50 is > 100 µM (inactive).

**Q.** And the GI50 [33]?
**A.** Its GI50 is > 100 µM (inactive).

**Q.** What about the GI50 [34] of the same compound?
**A.** Its GI50 is > 100 µM (inactive).

**Q.** And the GI50 [35]?
**A.** Its GI50 is > 100 µM (inactive).

**Q.** What about the GI50 [36] of the same compound?
**A.** Its GI50 is > 100 µM (inactive).

**Q.** And the GI50 [37]?
**A.** Its GI50 is > 100 µM (inactive).

**Q.** What about the GI50 [38] of the same compound?
**A.** The GI50 was > 100 µM (inactive).

**Q.** And the GI50 [39]?
**A.** Its GI50 is > 100 µM (inactive).

**Q.** And the GI50 [41]?
**A.** Its GI50 is > 100 µM (inactive).

**Q.** And the GI50 [42]?
**A.** The GI50 was > 100 µM (inactive).

**Q.** And the GI50 [43]?
**A.** The GI50 was > 100 µM (inactive).

**Q.** And the GI50 [44]?
**A.** The GI50 was > 100 µM (inactive).

**Q.** And the GI50 [58]?
**A.** The GI50 was > 100 µM (inactive).

**Q.** And the GI50 [45]?
**A.** Its GI50 is > 100 µM (inactive).

**Q.** What about the GI50 [46] of the same compound?
**A.** The GI50 was > 100 µM (inactive).

**Q.** And the GI50 [47]?
**A.** The GI50 was > 100 µM (inactive).

**Q.** And the GI50 [48]?
**A.** The GI50 was > 100 µM (inactive).

**Q.** What about the GI50 [49] of the same compound?
**A.** The GI50 was > 100 µM (inactive).

**Q.** And the GI50 [50]?
**A.** Its GI50 is > 100 µM (inactive).

**Q.** And the GI50 [51]?
**A.** Its GI50 is > 100 µM (inactive).

**Q.** What about the GI50 [52] of the same compound?
**A.** The GI50 was > 100 µM (inactive).

**Q.** What about the GI50 [54] of the same compound?
**A.** The GI50 was > 100 µM (inactive).

**Q.** And the GI50 [55]?
**A.** Its GI50 is > 100 µM (inactive).

**Q.** Which results are given for `CN1CCCS/C1=C1/SC(=S)N(c2ccccc2)C1=O`?
**A.** GI50 [56]: > 100 µM (inactive); GI50 [1]: > 100 µM (inactive); GI50 [2]: > 100 µM (inactive); GI50 [3]: > 100 µM (inactive); GI50 [4]: > 100 µM (inactive); GI50 [5]: > 100 µM (inactive); GI50 [6]: > 100 µM (inactive); GI50 [7]: > 100 µM (inactive); GI50 [8]: > 100 µM (inactive); GI50 [9]: > 100 µM (inactive); GI50 [10]: > 100 µM (inactive); GI50 [11]: > 100 µM (inactive); GI50 [12]: > 100 µM (inactive); GI50 [13]: > 100 µM (inactive); GI50 [14]: > 100 µM; GI50 [15]: > 100 µM (inactive); GI50 [16]: > 100 µM (inactive); GI50 [17]: > 100 µM (inactive); GI50 [18]: > 100 µM (inactive); GI50 [19]: > 100 µM (inactive); GI50 [57]: > 100 µM (inactive); GI50 [20]: > 100 µM (inactive); GI50 [21]: > 100 µM (inactive); GI50 [22]: > 100 µM (inactive); GI50 [23]: > 100 µM (inactive); GI50 [24]: > 100 µM (inactive); GI50 [25]: > 100 µM (inactive); GI50 [26]: > 100 µM (inactive); GI50 [27]: > 100 µM (inactive); GI50 [28]: > 100 µM (inactive); GI50 [29]: > 100 µM (inactive); GI50 [30]: > 100 µM (inactive); GI50 [31]: > 100 µM (inactive); GI50 [32]: > 100 µM (inactive); GI50 [59]: > 100 µM (inactive); GI50 [33]: > 100 µM (inactive); GI50 [34]: > 100 µM (inactive); GI50 [35]: > 100 µM (inactive); GI50 [36]: > 100 µM (inactive); GI50 [37]: > 100 µM (inactive); GI50 [38]: > 100 µM (inactive); GI50 [39]: > 100 µM (inactive); GI50 [40]: > 100 µM (inactive); GI50 [41]: > 100 µM (inactive); GI50 [42]: > 100 µM (inactive); GI50 [43]: > 100 µM (inactive); GI50 [44]: > 100 µM (inactive); GI50 [58]: > 100 µM (inactive); GI50 [45]: > 100 µM (inactive); GI50 [46]: > 100 µM (inactive); GI50 [47]: > 100 µM (inactive); GI50 [48]: > 100 µM (inactive); GI50 [49]: > 100 µM (inactive); GI50 [50]: > 100 µM (inactive); GI50 [52]: > 100 µM (inactive); GI50 [53]: > 100 µM (inactive); GI50 [54]: > 100 µM (inactive); GI50 [55]: > 100 µM (inactive)
